Results: patent US20220339179A1, “TREATMENT OF HR DEFICIENT CANCER” (THE FRANCIS CRICK INSTITUTE LIMITED, priority 2019, published 2022)

Key:
[1] = test system: PARP1 chromatin association in eHAP SMUG1−/− cells; experiment: PARP trapping assay (chromatin fractionation), eHAP SMUG1−/− cells; format: cell-based, human; settings: MMS 0.01% then olaparib 10 μM 4 h
Protocol: Briefly, 500.000 cells were seeded onto six-well plates, and treated with 350 nM hmdU or 0.01% MMS for 24 hours at which point cells were either left untreated or treated with 10 μM olaparib for 4 h. Cells were fractionated with the Subcellular Protein Fractionation kit for Cultured Cells (ThermoFisher #78840) according to the manufacturer's instructions. Soluble and chromatin fractions were analysed by immunoblotting for PARP1 (Cell Signaling #9542, rabbit) and yH2AX (Millipore, JBW301) antibodies. Incubation with primary antibody was followed by incubation with a horseradish peroxidase-conjugated secondary antibody and chemiluminescent detection of proteins (Amersham Pharmacia, Cardiff, UK).

[2] = test system: BRCA2/DNPH1 double knock-out cell lines (DLD1); experiment: Cell viability assay, DLD1 BRCA2/DNPH1 double knock-out cells; format: cell-based; settings: absence of a PARP inhibitor; two independent double knock-out lines
Protocol: (§1) For analysis of cell viability following exposure to olaparib (Selleckchem), deoxyribonucleosides and DNPH1i (N6-benzyladenosine, Carbosynth), cells were seeded in 96-well plates at a density of 100-500 cells per well. Twenty-four hours post-seeding, drug treatments were initiated, and cells were continuously exposed until termination of the experiment. Cell viability was measured using CellTiter-Glo (Promega). The surviving fractions were measured, and drug sensitivity curves were plotted using GraphPad Prism. The following nucleosides were purchased from commercial sources: dU (2′-deoxyuridine), hdU (5-hydroxy-2′-deoxyuridine), hmdU (5-hydroxymethyl-2′-deoxyuridine), mdC (5-methyl-2′-deoxycytidine), hmdC (5-hydroxymethyl-2′-deoxycytidine), cadC (5-carboxy-2-deoxycytidine), fodC (5-formyl-2-deoxycytidine), dl (2′-deoxyinosine), dX (2′-deoxyxanthosine), 8odG (8-oxo-2′-deoxyguanosine), hmU (5 hydroxymethyluridine), hmC (5-hydroxymethyl-cytidine). fodU (5-formyl-2′-deoxyuridine) was synthesized as previously described (Guo et al Org. Biomol. Chem. 11, 1610-1613 (2013).

[3] = test system: SUM149 BRCA1mut/PARP1−/− cells; experiment: Cell viability assay, SUM149 BRCA1mut/PARP1−/− cells; format: cell-based, human; settings: PARPi-resistant cells; hmdU 2 μM + olaparib; ratio of EC50 values
[4] = test system: SUM149 BRCA1mut (parental) cells; experiment: Cell viability assay, SUM149 BRCA1mut (parental) cells; format: cell-based, human; settings: 8 days
Protocol: as §1

[5] = test system: DLD1 WT, BRCA2 and DNPH1 single knock-out cell lines; experiment: Cell viability assay, DLD1 WT and single knock-out cells; format: cell-based; settings: highest dose tested
Protocol: as §1

[6] = test system: eHAP MUS81−/− cells; experiment: Cell viability assay (CellTiter-Glo), eHAP MUS81−/− cells; format: cell-based, human; settings: single agent
Protocol: as §1

[7] = test system: DCTD k/o cell lines; experiment: Cell viability, DCTD k/o cell lines; format: cell-based
Protocol: as §1

[8] = test system: SUM149 WT (revertant) cells; experiment: Cell viability assay, SUM149 WT (revertant) cells; format: cell-based, human; settings: hmdU with DNPH1i 0.5 μM or olaparib, 8 days
Protocol: as §1

[9] = test system: DLD1 BRCA2−/− cells; experiment: Cell viability assay, DLD1 BRCA2−/− cells; format: cell-based; settings: olaparib 10 nM or hmdU 2 μM, 10 days
Protocol: as §1

[10] = test system: eHAP MUS81−/−DNPH1−/− cells; experiment: Cell viability assay (CellTiter-Glo), eHAP MUS81−/−DNPH1−/− cells; format: cell-based, human; settings: nucleoside 200 nM, 6 days, vs MUS81 k/o
Protocol: as §1

[11] = test system: eHAP WT and DNPH1 k/o cells; experiment: Nucleoside composition of genomic DNA by LC-MS; format: cell-based, human; settings: cells treated with exogenous hmdU; DNPH1 k/o vs WT
Protocol: Cells (5×10^7) were collected and DNA extracted using Gentra Puregene Cell Kit (Qiagen) supplemented with RNAse (Qiagen) and 100 mM tetrahydrouridine (Merck). DNA was digested to mononucleosides by modification of a published protocol (41). Briefly, reactions were carried out in […] buffer containing […] DNA, 50 mM Tris pH 9.0, 20 mM NaCl, 5 mM MgCl2, 1 kU Benzonase, 1 U phosphodiesterase I and 10 U FastAP alkaline phosphatase for 48 hrs at 37° C. The samples were then precipitated with chloroform and labelled standards of deoxyadenosine (dA), deoxycytidine (dC), deoxyguanosine (dG) and deoxythymidine (dT) were spiked for normalization of the signal response from modified deoxynucleosides. Polar phases were analyzed by LC-MS/MS using a using a reverse phase column (100×2.1 mm, 3 μm, Fortis C18, Fortis Technologies) on a Dionex UltiMate LC system coupled to a TSQ Quantiva™ Triple Quadrupole (Thermo Scientific) mass spectrometer with a HESI 11 (heated electrospray ionization) source. The mobile phases consisted of water containing 0.1% acetic acid (mobile phase A) and acetonitrile (mobile phase B). A gradient of 12 min 0-12% B and 1 min 12-60% B was used for the separation of all the modified nucleosides. […]

[12] = test system: SUM149 BRCA1mut/53BP1−/− cells; experiment: Cell viability assay, SUM149 BRCA1mut/53BP1−/− cells; format: cell-based, human; settings: PARPi-resistant cells; hmdU 2 μM + olaparib; ratio of EC50 values

Row | SMILES | difference in PARP trapping or DNA damage signaling between WT and SMUG1-deficient cells [1] | cells killed by hmdU [2] | expansion of the therapeutic window of olaparib by hmdU [3] [fold] | synthetic lethality of hmdU with DNPH1 inhibition ([4]; DNPH1i 0.5 μM) | expansion of the therapeutic window of olaparib by addition of hmdU ([4]; hmdU 2 μM + olaparib vs olaparib alone, ratio of EC50 values revertant vs BRCA1mut) [fold] | effect on viability, agent alone ([4]; olaparib 250 nM or hmdU 2 μM) | sensitivity to hmdU [5] | effect on viability, agent alone [6] | resistance of DCTD k/o cells to nucleoside treatment [7] | effect of treatment on isogenic WT cells [8] | effect on viability, agent alone [9] | sensitivity of MUS81/DNPH1 k/o cells to nucleoside treatment (cell viability) [10] | increase in genomic hmdU in DNPH1 k/o cells after hmdU treatment [11] [fold] | expansion of the therapeutic window of olaparib by hmdU [12] [fold]
1 | COS(C)(=O)=O [MMS, methyl methanesulfonate] | did not observe any difference | – | – | – | – | – | – | – | – | – | – | – | – | –
2 | O=c1[nH]c(=O)n([C@H]2C[C@H](O)[C@@H](CO)O2)cc1CO [hmdU, 5-hydroxymethyl-2′-deoxyuridine] | – | over 95% | 3 | to the same extent as Olaparib alone | 4 | limited effect on viability | resistant to the highest dose tested | no effect on viability | not | unaffected | limited effect on viability | hypersensitive | 3 | 3
